Measurements from paper PMC5034043 (The Journal of Biological Chemistry, 2016).
Where two headings read alike, the source gives them in different places.

Experiments:
GABAA receptor subunits = experiment: Western blotting of streptavidin-captured GABAA receptor subunits with ligand protection; type: binding, mouse; conditions: AziPm-click (1) 10 μM, protecting ligand 100 μM, UV irradiation; n = 4
Method: (§1) Synaptosomes were resuspended to 1 mg of protein/ml in HEPES buffer medium (in mM: 140 NaCl, 5 KCl, 5 NaHCO3, 1.2 NaH2PO4, 1 MgCl2, 10 glucose, and 10 HEPES (pH 7.4)). […] The samples were allowed to equilibrate for 5 min before being transferred to a parafilm-sealed 1-mm path length quartz cuvette. The sample was then irradiated for 20 min at a peak bandwidth of 350 nm (Rayonet RPR-3500 lamp) ∼6 cm from the light source. Non-irradiated samples were left in the dark at ambient temperature (22–25 °C) for 20 min. All remaining procedures were conducted with restricted light exposure.
To 750 μg of photolabeled or control synaptosome samples, 40 μl of 10% SDS and 2 μl of 5 mM DTT in water were added. Samples were then vortexed, heated for 10 min at 65 °C, and then briefly cooled. Final concentrations of 150 μM azide-biotin (Click Chemistry Tools), 2 mM tris(3-hydroxypropyltriazolylmethyl)amine (Sigma), 1 mM ascorbic acid (Sigma), and 1 mM CuSO4·5H2O (Sigma) were added to each sample and vortexed vigorously. The samples were left in the dark at ambient temperature (22–25 °C) for 1 h with mild agitation. Directly to each sample 4× volume chilled methanol, 1.5× chilled chloroform, and 3× chilled double distilled H2O were added. Samples were vortexed vigorously and centrifuged at 1,400 × g for 30 min at 4 °C. […]

synaptosomal proteome = type: binding, mouse
Method: as §1
To 750 μg of photolabeled or control synaptosome samples, 40 μl of 10% SDS and 2 μl of 5 mM DTT in water were added. Samples were then vortexed, heated for 10 min at 65 °C, and then briefly cooled. Final concentrations of 150 μM azide-biotin (Click Chemistry Tools), 2 mM tris(3-hydroxypropyltriazolylmethyl)amine (Sigma), 1 mM ascorbic acid (Sigma), and 1 mM CuSO4·5H2O (Sigma) were added to each sample and vortexed vigorously. The samples were left in the dark at ambient temperature (22–25 °C) for 1 h with mild agitation. Directly to each sample 4× volume chilled methanol, 1.5× chilled chloroform, and 3× chilled double distilled H2O were added. Samples were vortexed vigorously and centrifuged at 1,400 × g for 30 min at 4 °C. Both liquid layers were carefully removed, and the protein pellet was washed with 2 ml of 1:1 (v/v) chilled methanol/chloroform. Samples were centrifuged at 3,500 × g for 30 min at 4 °C. Protein pellets were briefly air-dried before further processing.
750 μg of biotin-conjugated protein sample was resuspended in 500 μl of 25 mM NH4HCO3 and 6 M urea in water. Next, 150 μl of 5% Triton X-100 in water, 50 μl of 10% SDS in water, and 1.5 μl of 0.5 M DTT were added. The samples were heated for 15 min at 65 °C. After briefly cooling, 14 μl of 0.5 M iodoacetamide in water was added, and the sample was left in the dark for 45 min. […] The supernatant was diluted to 4 ml with PBS, and 2 ml of PBS containing 100 μl of 50% streptavidin-agarose resin (Thermo Scientific) was added. Biotinylated proteins within the sample were captured over resin overnight at 4 °C with mild agitation. The resin was first washed with 6 ml of 1% SDS in PBS, and then 7 ml of 0.1 M urea in PBS followed by 10 ml of PBS. The resin underwent a final wash with 0.9 ml of 50 mM Tris-HCl and 1 mM CaCl2 in water (pH 8.0) and then resuspended in 200 μl of 50 mM Tris-HCl, 1 mM CaCl2 in water (pH 8.0), and 2 μg of porcine sequencing grade trypsin (Promega). Samples were digested overnight at 37 °C. Samples were then centrifuged at 2,000 × g for 4 min, and digest supernatant was decanted. Beads were washed in 100 μl of PBS centrifuged at 5,200 × g for 5 min, and the wash was combined with the digest supernatant. To the combined sample, trifluoroacetic acid (TFA) was added to 0.4% (v/v) or until pH <2. The sample was desalted with Oasis C18 10-mg columns (Waters) as described previously ([66]). The eluted sample was dried by speed vac and resuspended in 0.1 M HEPES buffer (pH 8.5). […] Appropriate corresponding TMTsixplex^TM-labeled samples were pooled and dried by speed vac. The combined samples were resuspended in 0.5% acetic acid in water and pH-corrected with acetic acid until pH was <2. 40 μg of protein was desalted with C18 stage tips prepared in-house and dried by speed vac.
Samples were resuspended in 10 mM KH2PO4 (pH 2.6), 30% acetonitrile (v/v) in water, and fractionated by off-line strong cation exchange chromatography prior to mass spectrometry (MS) analysis similar to as reported previously ([66]). The full synaptosome proteome control was prepared similarly without TMTsixplex^TM labeling.
All TMT samples were analyzed with three-stage mass spectrometry (MS3) TMTsixplex^TM quantification workflow as described previously ([34]).

[1] = tested on: alkylphenol-binding proteins within synaptosomes; experiment: Fluorescent profiling: protection from AziPm-click (1) photolabeling of synaptosomes; set-up: species or system mouse; conditions: propofol 75–375 μM; ketamine 150–450 μM; triplicate
Method: as §1

X. laevis tadpoles = experiment: In vivo photolabeling in tadpoles (recovery after UV irradiation); set-up: species or system Xenopus laevis; conditions: 12 μM for 30 min, then 10 min low intensity UV irradiation
Method: Tadpoles were then exposed to 10 min of low intensity UV irradiation or were maintained as a 10-min non-UV irradiation control.
Behavioral activity was initially determined in albino X. laevis tadpoles (stages 45–47) as described previously ([29], [33]). All animal care and experimental procedures involving X. laevis tadpoles were carried out according to a protocol approved by the IACUC of the University of Pennsylvania.

[2] = buffer
[3] = protein A2AI17 Glutamate receptor ionotropic, NMDA 1 (Grin1)
[4] = protein P70429-2 Isoform 1 of Ena/VASP-like protein (Evl)
[5] = protein P97300-3 Isoform 3 of Neuroplastin (Nptn)
[6] = protein Q8BJU0-2 Isoform 2 of Small glutamine-rich tetratricopeptide repeat-containing protein alpha (Sgta)
[7] = protein Q8CFX3 Protein Pcdh1 (Pcdh1)
[8] = protein Q9DBF1-2 Isoform 2 of Alpha-aminoadipic semialdehyde dehydrogenase (Aldh7a1)
[9] = protein Q9EPJ9-2 Isoform 2 of ADP-ribosylation factor GTPase-activating protein 1 (Arfgap1)

SMILES: CC(C)c1cccc(C(C)C)c1O [propofol, 2,6-diisopropylphenol, reference compound]
- protection of GABAA receptor α and β subunits from AziPm-click (1) capture (GABAA receptor subunits): significant decreases in capture efficiency
- Log2( Mean 'UV/ UV+propofol') (synaptosomal proteome; O35633-2 Slc32a1): 1.24
- % propofol protection (synaptosomal proteome; Q8BKX1-4 Baiap2): 71%
- Log2( Mean 'UV/ UV+propofol') (synaptosomal proteome; Q8BKX1-4 Baiap2): 1.77
- % propofol protection (synaptosomal proteome; Q8VDQ8-2 Sirt2): 71%
- Log2( Mean 'UV/ UV+propofol') (synaptosomal proteome; Q8VDQ8-2 Sirt2): 1.61
- decrease in enrichment factor with propofol protection (synaptosomal proteome; five GABAA receptor subunits (α1,3 and β1–3), enrichment factor = mean (+)UV/(−)UV TMT ratio): at least 10
- % propofol protection (synaptosomal proteome; [3]): 57%
- Log2( Mean 'UV/ UV+propofol') (synaptosomal proteome; [3]): 1.07
- % propofol protection (synaptosomal proteome; [4]): 56%
- Log2( Mean 'UV/ UV+propofol') (synaptosomal proteome; [4]): 1.14
- Log2( Mean 'UV/ UV+propofol') (synaptosomal proteome; [5]): 1.17
- % propofol protection (synaptosomal proteome; [6]): 56%
- Log2( Mean 'UV/ UV+propofol') (synaptosomal proteome; [6]): 1.02
- % propofol protection (synaptosomal proteome; [7]): 50%
- Log2( Mean 'UV/ UV+propofol') (synaptosomal proteome; [7]): 0.87
- % propofol protection (synaptosomal proteome; [8]): 52%
- Log2( Mean 'UV/ UV+propofol') (synaptosomal proteome; [8]): 0.94
- % propofol protection (synaptosomal proteome; [9]): 56%
- Log2( Mean 'UV/ UV+propofol') (synaptosomal proteome; [9]): 1.06
- fluorescent labeling of synaptosomal proteins by AziPm-click (1) in presence of protecting ligand [1]: decreased

SMILES: C#CCOCc1ccc(C2(C(F)(F)F)N=N2)cc1O [AziPm-click (1), 2-((prop-2-yn-1-yloxy)methyl)-5-(3-(trifluoromethyl)-3H-diazirin-3-yl)phenol]
- immobility after drug washout (X. laevis tadpoles): prolonged immobility after drug washout
- TMT Ratio Mean 'UV/ No UV' (synaptosomal proteome; O35633-2 Slc32a1): 20.27
- TMT Ratio Mean 'UV/ No UV' (synaptosomal proteome; P60879-2 Snap25): 23.67
- Log2( Mean 'UV/ No UV') (synaptosomal proteome; [3]): 3.36
- TMT Ratio Mean 'UV/ No UV' (synaptosomal proteome; [3]): 10.28
- TMT Ratio Mean 'UV/ No UV' (synaptosomal proteome; protein P23819-4 Isoform 4 of Glutamate receptor 2 (Gria2)): 12.58
- TMT Ratio Mean 'UV/ No UV' (synaptosomal proteome; [4]): 19.89
- TMT Ratio Mean 'UV/ No UV' (synaptosomal proteome; [5]): 12.71
- TMT Ratio Mean 'UV/ No UV' (synaptosomal proteome; [6]): 15.19
- TMT Ratio Mean 'UV/ No UV' (synaptosomal proteome; [8]): 14.82
- TMT Ratio Mean 'UV/ No UV' (synaptosomal proteome; [9]): 10.88
- half-life (t½) of time-dependent photoreactivity [2]: 25 min
